Reference: PubChem BioAssay AID1919003 (Molecular Pharmacology Branch, DTP, NCI, 2023)
pIC50: −log10 of the molar value.

Tested on: 786-0 complex spheroids with HUVEC/MSC, growth % test/control
Experiment: Anticancer human tumor 786-0 cell line growth inhibition [AhR];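 note: compound exposure lasted seven days before the read-out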
Conditions: for pIC50: curve of first compound; for viability, T/C: stronger effect = lower value
Summary of the method: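 Spheroids combined tumor cells with HUVEC endothelial cells and human MSCs as stroma. AhR antagonists were paired with standard or investigational drugs, each dosed in half-log steps down from near clinical Cmax, or from 10 microM where Cmax was unknown.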

[1] = second compound 0.1 µM, first compound 0.0316 µM
[2] = second compound 0.1 µM, first compound 0.1 µM
[3] = second compound 0.316 µM, first compound 0.0316 µM
[4] = second compound 0.316 µM, first compound 0.1 µM
[5] = second compound 1 µM, first compound 0.0316 µM
[6] = second compound 1 µM, first compound 0.1 µM
[7] = second compound 3.16 µM, first compound 0.0316 µM
[8] = second compound 3.16 µM, first compound 0.1 µM
[9] = second compound 10 µM, first compound 0.0316 µM
[10] = second compound 10 µM, first compound 0.1 µM

For `CC1COCCN1c1cc(C2(S(C)(=N)=O)CC2)nc(-c2ccnc3[nH]ccc23)n1` (stereo not given) + Cc1cncc(-c2nc(NCCc3c[nH]c4ccccc34)c3ncn(C(C)C)c3n2)c1, the pIC50 (second compound 0.1 µM) was 5.15, the pIC50 (second compound 0.316 µM) was 5.19 and the pIC50 (second compound 1 µM) was 5.32. For the same compound, the pIC50 (second compound 3.16 µM) was 5.91, the pIC50 (second compound 10 µM) was greater than 7.50 and the viability, T/C [1] was 107%. The viability, T/C [2] was 118%, the viability, T/C (second compound 0.1 µM, first compound 0.316 µM) was 116% and the viability, T/C (second compound 0.1 µM, first compound 1 µM) was 113%. It also gave a viability, T/C (second compound 0.1 µM, first compound 3.16 µM) of 97.7%, a viability, T/C (second compound 0.1 µM, first compound 10 µM) of 29.8% and a viability, T/C [3] of 122%. The viability, T/C [4] was 117%, the viability, T/C (second compound 0.316 µM, first compound 0.316 µM) was 112% and the viability, T/C (second compound 0.316 µM, first compound 1 µM) was 108%. For the same compound, the viability, T/C (second compound 0.316 µM, first compound 3.16 µM) was 91.9%, the viability, T/C (second compound 0.316 µM, first compound 10 µM) was 25.3% and the viability, T/C [5] was 100%. For the same compound, the viability, T/C [6] was 110%, the viability, T/C (second compound 1 µM, first compound 0.316 µM) was 105% and the viability, T/C (second compound 1 µM, first compound 1 µM) was 125%. For the same compound, the viability, T/C (second compound 1 µM, first compound 3.16 µM) was 67%, the viability, T/C (second compound 1 µM, first compound 10 µM) was 20.9% and the viability, T/C [7] was 62.4%. For the same compound, the viability, T/C [8] was 64.5%, the viability, T/C (second compound 3.16 µM, first compound 0.316 µM) was 69% and the viability, T/C (second compound 3.16 µM, first compound 1 µM) was 53.6%. For the same compound, the viability, T/C (second compound 3.16 µM, first compound 3.16 µM) was 26.9%, the viability, T/C (second compound 3.16 µM, first compound 10 µM) was 5.56% and the viability, T/C [9] was 18.2%. It also gave a viability, T/C [10] of 18.7%, a viability, T/C (second compound 10 µM, first compound 0.316 µM) of 20.6% and a viability, T/C (second compound 10 µM, first compound 1 µM) of 17.5%. It also gave a viability, T/C (second compound 10 µM, first compound 3.16 µM) of 3.02% and a viability, T/C (second compound 10 µM, first compound 10 µM) of 0.89%.
For `CC[C@@]1(O)C(=O)OCc2c1cc1n(c2=O)Cc2cc3c(CN(C)C)c(O)ccc3nc2-1` + CC(CO)NC(=O)c1cc(-c2ccc(Cl)cc2)nn(-c2cnn(C)c2)c1=O, the pIC50 (second compound 0.1 µM) was 7.23, the pIC50 (second compound 0.316 µM) was 7.24 and the pIC50 (second compound 1 µM) was 7.22. It also gave a pIC50 (second compound 3.16 µM) of 7.27, a pIC50 (second compound 10 µM) of 7.29 and a viability, T/C (second compound 0.1 µM, first compound 0.000316 µM) of 112%. The viability, T/C (second compound 0.1 µM, first compound 0.001 µM) was 119%, the viability, T/C (second compound 0.1 µM, first compound 0.00316 µM) was 111% and the viability, T/C (second compound 0.1 µM, first compound 0.01 µM) was 115%. The viability, T/C [1] was 90.9%, the viability, T/C [2] was 15.2% and the viability, T/C (second compound 0.316 µM, first compound 0.000316 µM) was 106%. For the same compound, the viability, T/C (second compound 0.316 µM, first compound 0.001 µM) was 114%, the viability, T/C (second compound 0.316 µM, first compound 0.00316 µM) was 112% and the viability, T/C (second compound 0.316 µM, first compound 0.01 µM) was 109%. The viability, T/C [3] was 89.9%, the viability, T/C [4] was 13.3% and the viability, T/C (second compound 1 µM, first compound 0.000316 µM) was 113%. For the same compound, the viability, T/C (second compound 1 µM, first compound 0.001 µM) was 107%, the viability, T/C (second compound 1 µM, first compound 0.00316 µM) was 108% and the viability, T/C (second compound 1 µM, first compound 0.01 µM) was 104%. It also gave a viability, T/C [5] of 95.4%, a viability, T/C [6] of 15.2% and a viability, T/C (second compound 3.16 µM, first compound 0.000316 µM) of 113%. It also gave a viability, T/C (second compound 3.16 µM, first compound 0.001 µM) of 116%, a viability, T/C (second compound 3.16 µM, first compound 0.00316 µM) of 109% and a viability, T/C (second compound 3.16 µM, first compound 0.01 µM) of 109%. For the same compound, the viability, T/C [7] was 80.9%, the viability, T/C [8] was 13.4% and the viability, T/C (second compound 10 µM, first compound 0.000316 µM) was 118%. For the same compound, the viability, T/C (second compound 10 µM, first compound 0.001 µM) was 116%, the viability, T/C (second compound 10 µM, first compound 0.00316 µM) was 118% and the viability, T/C (second compound 10 µM, first compound 0.01 µM) was 113%. The viability, T/C [9] was 76.9% and the viability, T/C [10] was 14.1%.
Compound `O=C(C=Cn1cnc(-c2cc(C(F)(F)F)cc(C(F)(F)F)c2)n1)NNc1cnccn1` + Cc1ccccc1N=Nc1ccc(NC(=O)c2ccnn2C)c(C)c1 has a pIC50 (second compound 0.1 µM) of 6.27, a pIC50 (second compound 0.316 µM) of 6.28 and a pIC50 (second compound 1 µM) of 6.33. For the same compound, the pIC50 (second compound 3.16 µM) was 6.25, the pIC50 (second compound 10 µM) was 6.37 and the viability, T/C (second compound 0.1 µM, first compound 0.00949 µM) was 103%. For the same compound, the viability, T/C (second compound 0.1 µM, first compound 0.03 µM) was 108%, the viability, T/C (second compound 0.1 µM, first compound 0.0949 µM) was 104% and the viability, T/C (second compound 0.1 µM, first compound 0.3 µM) was 59.5%. For the same compound, the viability, T/C (second compound 0.1 µM, first compound 0.949 µM) was 41.4%, the viability, T/C (second compound 0.1 µM, first compound 3 µM) was 15.4% and the viability, T/C (second compound 0.316 µM, first compound 0.00949 µM) was 109%. For the same compound, the viability, T/C (second compound 0.316 µM, first compound 0.03 µM) was 105%, the viability, T/C (second compound 0.316 µM, first compound 0.0949 µM) was 115% and the viability, T/C (second compound 0.316 µM, first compound 0.3 µM) was 64.7%. It also gave a viability, T/C (second compound 0.316 µM, first compound 0.949 µM) of 38%, a viability, T/C (second compound 0.316 µM, first compound 3 µM) of 17.3% and a viability, T/C (second compound 1 µM, first compound 0.00949 µM) of 113%. The viability, T/C (second compound 1 µM, first compound 0.03 µM) was 100%, the viability, T/C (second compound 1 µM, first compound 0.0949 µM) was 104% and the viability, T/C (second compound 1 µM, first compound 0.3 µM) was 55.8%. It also gave a viability, T/C (second compound 1 µM, first compound 0.949 µM) of 38%, a viability, T/C (second compound 1 µM, first compound 3 µM) of 16.4% and a viability, T/C (second compound 3.16 µM, first compound 0.00949 µM) of 91.6%. For the same compound, the viability, T/C (second compound 3.16 µM, first compound 0.03 µM) was 92.7%, the viability, T/C (second compound 3.16 µM, first compound 0.0949 µM) was 101% and the viability, T/C (second compound 3.16 µM, first compound 0.3 µM) was 63.7%. The viability, T/C (second compound 3.16 µM, first compound 0.949 µM) was 38.6%, the viability, T/C (second compound 3.16 µM, first compound 3 µM) was 18.2% and the viability, T/C (second compound 10 µM, first compound 0.00949 µM) was 88.4%. The viability, T/C (second compound 10 µM, first compound 0.03 µM) was 84.8%, the viability, T/C (second compound 10 µM, first compound 0.0949 µM) was 74.5% and the viability, T/C (second compound 10 µM, first compound 0.3 µM) was 56.4%. For the same compound, the viability, T/C (second compound 10 µM, first compound 0.949 µM) was 34.8% and the viability, T/C (second compound 10 µM, first compound 3 µM) was 17.3%.
